Read-outs that look alike come from different tables or passages of the source. No end group written: not given here.
Legend:
mAb F22-4 [1] = assay: Biacore antibody-ligand binding (equilibrium and kinetic analysis); parameters: species or system murine
mAb F22-4 [2] = assay: StopFlow antibody-ligand binding; parameters: species or system murine
F22-4 antibody = assay: ITC microcalorimetry; assay type: binding, murine
From the text: ITC experiments with F22-4 antibody and several chemically synthesized oligosaccharidic fragments of O-Ag 2a lead to two major results.

LPS/F22-4 [3] = assay: ELISA inhibition of LPS/F22-4 binding; parameters: species or system murine
LPS/F22-4 [4] = settings: cited from earlier work
[5] = test system: S. flexneri 2a mAb (F22-4); assay: Reactivity of selected or conjugated peptides with the F22-4 mAb; assay type: binding, murine; settings: conjugated peptides, coupled to BSA
From the text: Two protective mAbs directed against S. flexneri LPS 2a (IgG C1-7 and IgG F22-4) were used for mimotope selection using the two libraries displaying 12 amino acid-long inserts.
The peptides have been synthesized with a flanking region AEGEF at the N-terminal and DPAKC at the C-terminal. The peptides have been conjugated to maleimide-activated bovine serum albumin (BSA) and to maleimide-activated keyhole limpet hemocyanine (KLH) using a kit from Pierce. The seven different sequences have been selected by Partner 4, all showing good reactivity with the S. flexneri 2a mAb (F22-4) and being inhibited by the LPS. Five of the sequences, B24, B1, C8, C26 and C17 (shown below in bold) have been chosen for further analyzes. The reason that the peptides C22 and C3 have been omitted are that they contain cysteine and the conjugation procedure that we exploited used cysteine for coupling to the protein. The conjugated peptides have been tested for reactivity with the F22-4 mAb and were positive when coupled to BSA. […] Sequences of peptides selected using the S. flexneri 2a specific mAb F22-4

mAb F22-4 [6] = assay: Biacore antibody-ligand binding (equilibrium and kinetic analysis); parameters: species or system murine; settings: equilibrium analysis; read-out: Biacore Eq KD
LPS/F22-4 [7] = assay: ELISA inhibition of LPS/F22-4 binding; parameters: species or system murine; remark: listed apart in the source
[8] = equilibrium analysis, read-out: Biacore Eq KD
[9] = kinetic analysis, read-out: Biacore Cin KD
[10] = PBS buffer at 25°C, read-out: KD
[11] = Table 6 recapitulation, read-out: microcal KD

Compound	Kd (mAb F22-4 [1]; [8]) [µM]	Biacore Cin koff(s-1) (mAb F22-4 [1]; kinetic analysis)	Kd (mAb F22-4 [1]; [9]) [µM]	Kd (mAb F22-4 [2]) [µM]	StopFlow koff(s-1) (mAb F22-4 [2])	StopFlow kon(M-1.s-1) (mAb F22-4 [2])	ΔH (Kcal/mol) (F22-4 antibody; PBS buffer at 25°C)	ΔS (cal/mol/K) (F22-4 antibody; PBS buffer at 25°C)	Kd (F22-4 antibody; [10]) [µM]	Kd (F22-4 antibody; [11]) [µM]	IC50 (LPS/F22-4 [3]) [µM]	effectiveness in inhibition compared with ECD (LPS/F22-4 [4]; LPS/F22-4 inhibition studies (12), (13))	IC50 compared with B(E)CDA'B'(E')C' (LPS/F22-4 [4]; reference (12))	reactivity with the F22-4 mAb [5]	Kd (mAb F22-4 [6]) [µM]	IC50 (LPS/F22-4 [7]) [µM]
COC1OC(C)C(OC2OC(CO)C(O)C(O)C2O)C(OC2OC(C)C(O)C(O)C2OC2OC(C)C(O)C(O)C2OC2OC(CO)C(O)C(OC3OC(C)C(OC4OC(CO)C(O)C(O)C4O)C(OC4OC(C)C(O)C(O)C4O)C3O)C2NC(C)=O)C1O (stereo not drawn) [B(E)CDAB(E)C]	0.61	0,068±0,03 s-1	0.75	0.16	0,05 s-1	3,10E+05 M-1.s-1	-19,5±0,2 Kcal/mol	-36,6 cal/mol/K	0.47	0.47	0.22	about three orders of magnitude more effective	–	–	–	–
CO[C@@H]1O[C@@H](C)[C@H](O)[C@@H](O)[C@H]1O[C@@H]1O[C@H](CO)[C@@H](O)[C@H](O[C@@H]2O[C@@H](C)[C@H](O[C@H]3O[C@H](CO)[C@@H](O)[C@H](O)[C@H]3O)[C@@H](O[C@@H]3O[C@@H](C)[C@H](O)[C@@H](O)[C@H]3O)[C@H]2O)[C@H]1NC(C)=O [B(E)CDA]	4.1	–	–	3.5	2,4 s-1	7,00E+05 M-1.s-1	-14,2±0,1 Kcal/mol	-22,7 cal/mol/K	3.35	3.35	2.5	–	–	–	–	–
COC1OC(C)C(OC2OC(CO)C(O)C(O)C2O)C(OC2OC(C)C(O)C(O)C2OC2OC(C)C(O)C(O)C2OC2OC(CO)C(O)C(OC3OC(C)C(OC4OC(CO)C(O)C(O)C4O)C(OC4OC(C)C(O)C(O)C4OC4OC(C)C(O)C(O)C4OC4OC(CO)C(O)C(O)C4NC(C)=O)C3O)C2NC(C)=O)C1O (stereo not drawn) [DAB(E)CDAB(E)C]	5.32	0,123±0,04 s-1	4.47	5	0,29 s-1	5,90E+04 M-1.s-1	-19,5±01,2 Kcal/mol	-41,2 cal/mol/K	5.4	5.4	5 ± 1.4	–	only an order of magnitude higher	–	–	–
CO[C@@H]1O[C@@H](C)[C@H](O[C@H]2O[C@H](CO)[C@@H](O)[C@H](O)[C@H]2O)[C@@H](O[C@@H]2O[C@@H](C)[C@H](O)[C@@H](O)[C@H]2O[C@@H]2O[C@@H](C)[C@H](O)[C@@H](O)[C@H]2O[C@@H]2O[C@H](CO)[C@@H](O)[C@H](O)[C@H]2NC(C)=O)[C@H]1O [DAB(E)C]	–	–	–	> 1100	–	–	–	–	–	–	> 1000	–	–	–	–	–
CO[C@@H]1O[C@@H](C)[C@H](O)[C@@H](O)[C@H]1O[C@@H]1O[C@@H](C)[C@H](O)[C@@H](O)[C@H]1O[C@@H]1O[C@H](CO)[C@@H](O)[C@H](O[C@@H]2O[C@@H](C)[C@H](O[C@H]3O[C@H](CO)[C@@H](O)[C@H](O)[C@H]3O)[C@@H](O)[C@H]2O)[C@H]1NC(C)=O [ECDAB]	–	–	–	300	–	–	-10,8±0,1 Kcal/mol	-19,6 cal/mol/K	230 ± 2	230 ± 2	354 ± 40	–	–	–	–	–
COC1OC(C)C(O)C(O)C1OC1OC(CO)C(O)C(OC2OC(C)C(OC3OC(CO)C(O)C(O)C3O)C(O)C2O)C1NC(C)=O (stereo not drawn) [ECDA]	–	–	–	–	–	–	-11,3±0,1 Kcal/mol	-19.2 cal/mol/K	89 ± 1	–	–	–	–	–	–	–
CC(=O)N[C@@H]1[C@@H](O[C@@H]2O[C@@H](C)[C@H](O[C@H]3O[C@H](CO)[C@@H](O)[C@H](O)[C@H]3O)[C@@H](O[C@@H]3O[C@@H](C)[C@H](O)[C@@H](O)[C@H]3O[C@@H]3O[C@@H](C)[C@H](O)[C@@H](O)[C@H]3O[C@@H]3O[C@H](CO)[C@@H](O)[C@H](O[C@@H]4O[C@@H](C)[C@H](O[C@H]5O[C@H](CO)[C@@H](O)[C@H](O)[C@H]5O)[C@@H](O[C@@H]5O[C@@H](C)[C@H](O)[C@@H](O)[C@H]5O[C@@H]5O[C@@H](C)[C@H](O)[C@@H](O)[C@H]5O)[C@H]4O)[C@H]3NC(C)=O)[C@H]2O)[C@H](O)[C@@H](CO)O[C@H]1O [[AB(E)CD]2]	1	0,074±0,004 s-1	1.09	1.5	0,13 s-1	8,30E+04 M-1.s-1	-17,7±0,7 Kcal/mol	-31,7 cal/mol/K	1.04	1.04	0.7	–	–	–	–	–
CC(=O)N[C@@H]1[C@@H](O[C@@H]2O[C@@H](C)[C@H](O[C@H]3O[C@H](CO)[C@@H](O)[C@H](O)[C@H]3O)[C@@H](O[C@@H]3O[C@@H](C)[C@H](O)[C@@H](O)[C@H]3O[C@@H]3O[C@@H](C)[C@H](O)[C@@H](O)[C@H]3O[C@@H]3O[C@H](CO)[C@@H](O)[C@H](O[C@@H]4O[C@@H](C)[C@H](O[C@H]5O[C@H](CO)[C@@H](O)[C@H](O)[C@H]5O)[C@@H](O[C@@H]5O[C@@H](C)[C@H](O)[C@@H](O)[C@H]5O[C@@H]5O[C@@H](C)[C@H](O)[C@@H](O)[C@H]5O[C@@H]5O[C@H](CO)[C@@H](O)[C@H](O[C@@H]6O[C@@H](C)[C@H](O[C@H]7O[C@H](CO)[C@@H](O)[C@H](O)[C@H]7O)[C@@H](O[C@@H]7O[C@@H](C)[C@H](O)[C@@H](O)[C@H]7O[C@@H]7O[C@@H](C)[C@H](O)[C@@H](O)[C@H]7O)[C@H]6O)[C@H]5NC(C)=O)[C@H]4O)[C@H]3NC(C)=O)[C@H]2O)[C@H](O)[C@@H](CO)O[C@H]1O [[AB(E)CD]3]	0.56	0,075+0,005^(H) s-1	1.56	0.69	0,11 s-1	1,70E+05 M-1.s-1	-17,3±0,8 Kcal/mol	-30,6 cal/mol/K	1.03	1.03	0.32	–	–	–	–	–
AEGEFPHGEIFHMMRRPDPAKC-COOH (AEGEFPHGEIFHMMRRPDPAKC-OH) [Peptide C17]	–	–	–	–	–	–	–	–	–	–	–	–	–	poor reactivity	–	–
YLEDWIKYNNQK [Peptide B1]	–	–	–	–	–	–	-24,0 ±0,1 Kcal/mol	-54,6 cal/mol/K	–	2.49	–	–	–	–	2.98	~3

Reference: patent EP2123668A1, “Immunogenic polypeptides that mimic the surface polysaccharide O-antigen from serotype 2A shigella flexneri, method for obtaining the same, and their use in vaccine and diagnostic compositions” (INSTITUT PASTEUR, priority 2008, dated 2009)
